According to patent US6291432A (Japan Energy Corporation, priority 1996, dated 2001):

The compounds below were run against T1, recombinant HIV-1 protease (Human immunodeficiency virus type 1 group M subtype B, UniProt P04585) (assay: HIV protease inhibition activity (enzyme activity inhibition rate)). Conditions: 50 nM final concentration of test compound; 60 min at 37° C.
T1 construct: measured using a recombinant HIV-1 protease
Assay type: biochemical
Protocol: The protease activity was measured using a recombinant HIV-1 protease (see Biochemistry, 250 (9)-264 (1990)) and a synthesized peptide substrate. The inhibition rate was calculated by determining a peptide fragment generated by cleavage between Tyr-Pro of the synthesized substrate after the reaction of 60 min at 37° C. using a reversed phase HPLC in the presence of the test compounds in various concentrations (see, for example, Japanese Patent Application Laid-open No. 170722/1993).
Examples of the evaluation results of the HIV protease inhibition activity of the tripeptide compound of the present invention by the above-described method is shown in Table 1. […] The concentration of the test compounds in Table 1 represents the final concentration in the reaction mixture.

SMILES | Enzyme activity inhibition rate (%) (addition concentration of 50 nM)
Cc1ccccc1CNC(=O)[C@H]1N(C(=O)[C@@H](O)[C@H](Cc2ccccc2)NC(=O)[C@@H](NC(=O)c2cc(=O)c3ccccc3o2)C(C)C)CSC1(C)C [Example 12, (R)-N-(2-methylbenzyl)-3-{(2S,3S)-3-[N-(2-chromonecarbonyl)-L-valyl]amino-2-hydroxy-4-phenylbutanoyl}-5,5-dimethyl-1,3-thiazolidine-4-carboxamide] | 97.4
CC[C@H](NC(=O)COc1cccc(N(C)C)c1)C(=O)N[C@@H](Cc1ccccc1)[C@H](O)C(=O)N1CSC(C)(C)[C@H]1C(=O)NCc1ccccc1C [Example 25, (R)-N-(2-methylbenzyl)-3-{(2S,3S)-2-hydroxy-3-[(S)-2-(3-dimethylaminophenoxyacetyl)aminobutanoyl]amino-4-phenylbutanoyl}-5,5-dimethyl-1-thiazolidine-4-carboxamide] | 99.9
CC[C@H](NC(=O)COc1ccc2ncccc2c1)C(=O)N[C@@H](Cc1ccccc1)[C@H](O)C(=O)N1CSC(C)(C)[C@H]1C(=O)NCc1ccccc1C [Example 24, (R)-N-(2-methylbenzyl)-3-{(2S,3S)-2-hydroxy-3-[(S)-2-(6-quinolinyloxyacetyl)aminobutanoyl]amino-4-phenylbutanoyl}-5,5-dimethyl-1-thiazolidine-4-carbox amide] | 98.1

Same assay, conditions: 50 nM final concentration of test compound; 60 min at 37° C.; read-out: Enzyme activity inhibition rate (%) (addition concentration of 50 nM)

SMILES | inhibition at 0.05 µM [%]
Cc1ccccc1CNC(=O)[C@H]1N(C(=O)[C@@H](O)[C@H](Cc2ccccc2)NC(=O)[C@@H](NC(=O)COc2cccc(N(C)C)c2)C(C)C)CSC1(C)C [Example 22, (R)-N-(2-methylbenzyl)-3-{(2S,3S)-2-hydroxy-3-[(S)-2-(3-dimethylaminophenoxyacetyl)amino-3-methylbutanoyl]amino-4-phenylbutanoyl}-5,5-dimethyl-1,3-thi azolidine-4-carboxamide] | 97.6
CC[C@H](NC(C)=O)C(=O)N[C@@H](Cc1ccccc1)[C@H](O)C(=O)N1CSC(C)(C)[C@H]1C(=O)NCc1ccccc1C [Example 34, (R)-N-(2-methylbenzyl)-3-{(2S,3S)-2-hydroxy-3-[(S)-2-acetylaminobutanoyl]amino-4-phenylbutanoyl}-5,5-dimethyl-1,3-thiazolidine-4-carboxamide] | 88.9
Cc1ccccc1CNC(=O)[C@@H]1CSCN1C(=O)[C@@H](O)[C@H](Cc1ccccc1)NC(=O)[C@H](CC(N)=O)NC(=O)OCc1ccccc1 [Example 2, (R)-N-(2-methylbenzyl)-3-{(2S,3S)-3-[N-(benzyloxycarbonyl)-L-asparaginyl]amino-2-hydroxy-4-phenylbutanoyl}-1,3-thiazolidine-4-carboxamide] | 71.7
CCOC(=O)N[C@H](C(=O)N[C@@H](Cc1ccccc1)[C@H](O)C(=O)N1CSC(C)(C)[C@H]1C(=O)NCc1ccccc1C)C(C)C [Example 29, (R)-N-(2-methylbenzyl)-3-{(2S,3S)-2-hydroxy-3-[(S)-2-(ethoxycarbonyl)amino-3-methylbutanoyl]amino-4-phenylbutanoyl}-5,5-dimethyl-1,3-thiazolidine-4-ca rboxamide] | 93
COC(=O)N[C@H](C(=O)N[C@@H](Cc1ccccc1)[C@H](O)C(=O)N1CSC(C)(C)[C@H]1C(=O)NCc1ccccc1C)[C@@H](C)O [Example 39, (R)-N-(2-methylbenzyl)-3-{(2S,3S)-2-hydroxy-3-[N-(methoxycarbonyl)-L-threonyl]amino-4-phenylbutanoyl}-5,5-dimethyl-1,3-thiazolidine-4-carboxamide] | 84.6
Cc1ccccc1CNC(=O)[C@H]1N(C(=O)[C@@H](O)[C@H](Cc2ccccc2)NC(=O)[C@@H](NC(=O)COc2cccc3ncccc23)C(C)C)CSC1(C)C [Example 23, (R)-N-(2-methylbenzyl)-3-{(2S,3S)-2-hydroxy-3-[(S)-2-(5-quinolinyloxyacetyl)amino-3-methylbutanoyl]amino-4-phenylbutanoyl}-5,5-dimethyl-1,3-thiazolidine-4-carboxamide] | 98.5
Cc1ccccc1CNC(=O)[C@H]1N(C(=O)[C@@H](O)[C@H](Cc2ccccc2)NC(=O)[C@@H](NC(=O)c2ccc3ccccc3n2)C(C)C)CSC1(C)C [Example 13, (R)-N-(2-methylbenzyl)-3-{(2S,3S)-3-[N-(2-quinolinecarbonyl)-L-valyl]amino-2-hydroxy-4-phenylbutanoyl}-5,5-dimethyl-1,3-thiazolidine-4-carboxamide] | 96.6
CC1(C)SCN(C(=O)[C@@H](O)[C@H](Cc2ccccc2)NC(=O)[C@H](CC(N)=O)NC(=O)OCc2ccccc2)[C@@H]1C(=O)NCc1ccccc1Cl [Example 5, (R)-N-(2-chlorobenzyl)-3-{(2S,3S)-3-[N-(benzyloxycarbonyl)-L-asparaginyl]amino-2-hydroxy-4-phenylbutanoyl}-5,5-dimethyl-1,3-thiazolidine-4-carboxamide] | 98.4
COc1cccc2cc(C(=O)N[C@@H](C)C(=O)N[C@@H](Cc3ccccc3)[C@H](O)C(=O)N3CSC(C)(C)[C@H]3C(=O)NCc3ccccc3C)oc12 [Example 20, (R)-N-(2-methylbenzyl)-3-{(2S,3S)-2-hydroxy-3-[(S)-2-(7-methoxy-2-benzofurancarbonyl)aminopropanoyl]amino-4-phenylbutanoyl}-5,5-dimethyl-1,3-thiazolidine-4-carboxamide] | 97.6
Cc1ccccc1CNC(=O)[C@H]1N(C(=O)[C@@H](O)[C@H](Cc2ccccc2)NC(=O)[C@@H](NC(=O)c2cc3ccccc3o2)C(C)C)CSC1(C)C [Example 11, (R)-N-(2-methylbenzyl)-3-{(2S,3S)-3-[N-(2-benzofurancarbonyl)-L-valyl]amino-2-hydroxy-4-phenylbutanoyl}-5,5-dimethyl-1,3-thiazolidine-4-carboxamide] | 97.1
Cc1ccccc1CNC(=O)[C@H]1N(C(=O)[C@@H](O)[C@H](Cc2ccccc2)NC(=O)[C@H](CC(N)=O)NC(=O)c2cnc3ccccc3n2)CSC1(C)C [Example 18, (R)-N-(2-methylbenzyl)-3-{(2S,3S)-3-[N-(2-quinoxalinecarbonyl)-L-asparaginyl]amino-2-hydroxy-4-phenylbutanoyl}-5,5-dimethyl-1,3-thiazolidine-4-carboxamide] | 98.8
Cc1ccccc1CNC(=O)[C@@H]1[C@@H](C)OCN1C(=O)[C@@H](O)[C@H](Cc1ccccc1)NC(=O)[C@H](CC(N)=O)NC(=O)OCc1ccccc1 [Example 9, (4S,5R)-N-(2-methylbenzyl)-3-{(2S,3S)-3-[N-(benzyloxycarbonyl)-L-asparaginyl]amino-2-hydroxy-4-phenylbutanoyl}-5-methyl-1,3-oxazolidine-4-carboxamide] | 61.9
COC(=O)N[C@@H](CC(N)=O)C(=O)N[C@@H](Cc1ccccc1)[C@H](O)C(=O)N1CSC(C)(C)[C@H]1C(=O)NCc1ccccc1C [Example 40, (R)-N-(2-methylbenzyl)-3-{(2S,3S)-2-hydroxy-3-[N-(methoxycarbonyl)-L-asparaginyl]amino-4-phenylbutanoyl}-5,5-dimethyl-1,3-thiazolidine-4-carboxamide] | 94.3
COCC(=O)N[C@H](C(=O)N[C@@H](Cc1ccccc1)[C@H](O)C(=O)N1CSC(C)(C)[C@H]1C(=O)NCc1ccccc1C)C(C)C [Example 31, (R)-N-(2-methylbenzyl)-3-{(2S,3S)-2-hydroxy-3-[(S)-2-(methoxyacetyl)amino-3-methylbutanoyl]amino-4-phenylbutanoyl}-5,5-dimethyl-1,3-thiazolidine-4-car boxamide] | 89.6
Cc1ccccc1CNC(=O)[C@H]1N(C(=O)[C@@H](O)[C@H](Cc2ccccc2)NC(=O)[C@@H](NC(=O)COc2cccc3cnccc23)C(C)C)CSC1(C)C [Example 8, (R)-N-(2-methylbenzyl)-3-{(2S,3S)-3-[N-(5-isoquinolinyloxyacetyl)-L-valyl]amino-2-hydroxy-4-phenylbutanoyl}-5,5-dimethyl-1,3-thiazolidine-4-carboxamide] | 97.7
CC(=O)N[C@H](C(=O)N[C@@H](Cc1ccccc1)[C@H](O)C(=O)N1CSC(C)(C)[C@H]1C(=O)NCc1ccccc1C)C(C)C [Example 33, (R)-N-(2-methylbenzyl)-3-{(2S,3S)-2-hydroxy-3-[(S)-2-acetylamino-3-methylbutanoyl]amino-4-phenylbutanoyl}-5,5-dimethyl-1,3-thiazolidine-4-carboxamide] | 89.8
Cc1ccccc1CNC(=O)[C@H]1N(C(=O)[C@@H](O)[C@H](Cc2ccccc2)NC(=O)[C@H](C)NC(=O)COc2cccc(N(C)C)c2)CSC1(C)C [Example 26, (R)-N-(2-methylbenzyl)-3-{(2S,3S)-2-hydroxy-3-[(S)-2-(3-dimethylaminophenoxyacetyl)aminopropanoyl]amino-4-phenylbutanoyl}-5,5-dimethyl-1,3-thiazolidine-4-carboxamide] | 99.9
Cc1ccccc1CNC(=O)[C@H]1N(C(=O)[C@@H](O)[C@H](Cc2ccccc2)NC(=O)[C@@H](NC(=O)c2cnc3ccccc3c2)C(C)C)CSC1(C)C [Example 21, (R)-N-(2-methylbenzyl)-3-{(2S,3S)-2-hydroxy-3-[(S)-2-(3-quinolinecarbonyl)amino-3-methylbutanoyl]amino-4-phenylbutanoyl}-5,5-dimethyl-1,3-thiazolidine-4-carboxamide] | 97.7

Same assay, conditions: read-out: Enzyme activity inhibition rate (%) (addition concentration of 50 nM)

SMILES | inhibition at 0.05 µM [%]
CCOCC(=O)N[C@H](C(=O)N[C@@H](Cc1ccccc1)[C@H](O)C(=O)N1CSC(C)(C)[C@H]1C(=O)NCc1ccccc1C)C(C)C [Example 32, (R)-N-(2-methylbenzyl)-3-{(2S,3S)-2-hydroxy-3-[(S)-2-(ethoxyacetyl)amino-3-methylbutanoyl]amino-4-phenylbutanoyl}-5,5-dimethyl-1,3-thiazolidine-4-carb oxamide] | 96.4
